Experimental findings from paper PMC9251005, “CT295 Is Chlamydia trachomatis’ Phosphoglucomutase and a Type 3 Secretion Substrate” (Frontiers in Cellular and Infection Microbiology, 2022) are described below.

Structures are written as SMILES.

What all share (format): biochemical
Test [1] addresses T1, CpsG-HIS (Escherichia coli, UniProt P24175).
T1 construct: gene manB; C-terminal polyhistidine tag, E. coli BL21(DE3), Ni-NTA and Superdex 200
T1 sequence (P24175 1-456): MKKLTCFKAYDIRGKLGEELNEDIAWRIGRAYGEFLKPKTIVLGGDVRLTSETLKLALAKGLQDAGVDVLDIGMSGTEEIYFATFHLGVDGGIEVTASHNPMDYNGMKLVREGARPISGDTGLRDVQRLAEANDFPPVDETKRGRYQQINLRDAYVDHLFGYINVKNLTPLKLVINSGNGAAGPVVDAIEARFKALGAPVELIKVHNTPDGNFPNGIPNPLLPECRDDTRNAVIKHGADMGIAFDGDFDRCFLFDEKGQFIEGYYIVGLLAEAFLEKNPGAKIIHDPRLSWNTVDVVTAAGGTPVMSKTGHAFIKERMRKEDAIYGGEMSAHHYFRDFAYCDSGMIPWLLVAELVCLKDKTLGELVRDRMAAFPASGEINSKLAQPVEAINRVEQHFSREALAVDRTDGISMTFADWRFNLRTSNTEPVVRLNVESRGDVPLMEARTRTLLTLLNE
Put plainly: HPAEC-PAD product analysis with and without cofactor. Conditions: 0.2 mg/ml Glc1,6diP, 0.66 mg/ml Glc1P, 10 mM Tris-HCl, 0.5 mM MgSO4, pH 8.0, 37°C, 20 min.

Test [2] has as its target T2, CT815-HIS (Chlamydia trachomatis, UniProt O84822).
T2 construct: gene glmM; pET28a, C-terminal polyhistidine tag, E. coli BL21(DE3), Ni-NTA and Superdex 200
Put plainly: HPAEC-PAD product analysis. The conditions noted are these: 0.66 mg/ml Glc1P, 0.2 mg/ml Glc1,6diP, 0.1 mg/ml enzyme, 10 mM Tris-HCl, 0.5 mM MgSO4, pH 8.0, 37°C, 20 min.

For test [3], the target named is T3, CCA00344-HIS (Chlamydia caviae, UniProt Q823R2).
T3 construct: gene CCA_00344; C-terminal polyhistidine tag, E. coli BL21(DE3), Ni-NTA and Superdex 200
T3 sequence (Q823R2 entry or part of it): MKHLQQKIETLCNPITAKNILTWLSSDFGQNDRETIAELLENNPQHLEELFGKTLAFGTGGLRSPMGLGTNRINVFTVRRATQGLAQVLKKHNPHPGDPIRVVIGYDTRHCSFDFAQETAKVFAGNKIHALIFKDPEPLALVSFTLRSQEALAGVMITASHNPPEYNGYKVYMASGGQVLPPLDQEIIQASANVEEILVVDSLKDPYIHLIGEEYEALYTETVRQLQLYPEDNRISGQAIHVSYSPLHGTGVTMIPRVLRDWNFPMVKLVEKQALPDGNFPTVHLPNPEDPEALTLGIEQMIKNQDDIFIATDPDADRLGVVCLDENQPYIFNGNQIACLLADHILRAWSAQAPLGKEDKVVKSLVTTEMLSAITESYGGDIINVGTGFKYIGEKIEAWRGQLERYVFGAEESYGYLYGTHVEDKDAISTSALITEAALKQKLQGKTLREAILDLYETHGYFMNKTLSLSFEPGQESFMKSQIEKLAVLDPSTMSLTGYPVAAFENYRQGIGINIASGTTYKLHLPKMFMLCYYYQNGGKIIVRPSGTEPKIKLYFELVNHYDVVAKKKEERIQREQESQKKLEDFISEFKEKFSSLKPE
Put plainly: HPAEC-PAD product analysis. Conditions: 0.2 mg/ml Glc1,6diP, 0.1 mg/ml enzyme, 10 mM Tris-HCl, 0.5 mM MgSO4, pH 8.0, 37°C, 20 min.

Test [4] deals with T1, CpsG-HIS. Put plainly: HPAEC-PAD product analysis. The conditions noted are these: 0.66 mg/ml Glc1P, 0.2 mg/ml Glc1,6diP, 0.1 mg/ml enzyme, 10 mM Tris-HCl, 0.5 mM MgSO4, pH 8.0, 37°C, 20 min.
In test [5] the target is T4, Flag-CT295 (Chlamydia trachomatis, UniProt O84297).
T4 construct: gene mrsA_1; N-terminal Flag tag, expressed in HEK293T, immobilised on anti-Flag beads
T4 sequence (O84297 entry or part of it): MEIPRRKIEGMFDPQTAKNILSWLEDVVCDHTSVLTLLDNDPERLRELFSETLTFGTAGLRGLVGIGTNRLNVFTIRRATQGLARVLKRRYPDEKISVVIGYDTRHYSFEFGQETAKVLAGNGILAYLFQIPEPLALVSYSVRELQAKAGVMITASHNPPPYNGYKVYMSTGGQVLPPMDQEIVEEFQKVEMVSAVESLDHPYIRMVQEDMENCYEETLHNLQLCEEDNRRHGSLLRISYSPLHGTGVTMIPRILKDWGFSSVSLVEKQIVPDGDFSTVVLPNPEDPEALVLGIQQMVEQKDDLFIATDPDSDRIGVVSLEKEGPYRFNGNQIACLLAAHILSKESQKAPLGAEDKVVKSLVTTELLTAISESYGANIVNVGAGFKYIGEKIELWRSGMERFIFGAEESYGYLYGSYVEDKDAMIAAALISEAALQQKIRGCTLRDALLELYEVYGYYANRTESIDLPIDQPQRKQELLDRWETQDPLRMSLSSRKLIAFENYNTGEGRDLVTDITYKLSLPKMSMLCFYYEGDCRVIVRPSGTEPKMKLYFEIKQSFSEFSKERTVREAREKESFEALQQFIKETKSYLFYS
Put plainly: HPAEC-PAD product analysis, enzyme on anti-Flag beads. The conditions noted are these: 0.66 mg/ml Glc1P, no Glc1,6diP, 10 mM Tris-HCl, 0.5 mM MgSO4, pH 8.0, 37°C, 20 min; immobilised enzyme.

T2 sequence (O84822 whole entry): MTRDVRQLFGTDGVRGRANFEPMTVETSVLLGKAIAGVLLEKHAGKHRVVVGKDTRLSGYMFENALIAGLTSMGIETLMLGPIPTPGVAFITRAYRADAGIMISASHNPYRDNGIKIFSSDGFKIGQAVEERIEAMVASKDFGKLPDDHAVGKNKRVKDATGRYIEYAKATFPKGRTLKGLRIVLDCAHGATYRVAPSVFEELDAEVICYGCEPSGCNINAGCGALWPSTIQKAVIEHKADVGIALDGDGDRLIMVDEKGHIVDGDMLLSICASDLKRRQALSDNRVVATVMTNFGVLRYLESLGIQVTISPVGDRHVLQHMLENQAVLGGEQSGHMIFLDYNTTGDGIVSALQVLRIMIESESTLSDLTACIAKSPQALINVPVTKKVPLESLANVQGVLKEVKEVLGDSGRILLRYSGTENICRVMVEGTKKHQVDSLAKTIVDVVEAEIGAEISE

Take `O=P(O)(O)OC[C@H]1O[C@H](OP(=O)(O)O)[C@H](O)[C@@H](O)[C@@H]1O` [Glc1,6diP]: the “HPAEC-PAD product analysis with and without cofactor” value in test [1] is “CpsG-HIS required the presence of Glc1,6diP to convert Glc1P into Glc6P”.
Take `O=P(O)(O)O[C@H]1O[C@H](CO)[C@@H](O)[C@H](O)[C@H]1O` [Glc1P]: the HPAEC-PAD product analysis result in test [2] is given as “only low levels of Glc6P were detected in the presence of CT815-HIS”; in test [3] (0.66 mg/ml Glc1P), “Incubation of Glc1P in the presence of CCA00344-HIS led to its full conversion into Glc6P”; in test [4] it was “CpsG-HIS required the presence of Glc1,6diP to convert Glc1P into Glc6P”. In test [5], the “HPAEC-PAD product analysis, enzyme on anti-Flag beads” value is “These data demonstrated the ability of CT295 to convert Glc1P into Glc6P”.
Take `O=P(O)(O)OC[C@H]1OC(O)[C@H](O)[C@@H](O)[C@@H]1O` (stereo partly drawn) [Glc6P]: the HPAEC-PAD product analysis entry in test [3] (0.33 mg/ml Glc6P, reverse reaction) is “very low amounts of Glc1P were detected after incubation with CCA00344-HIS or CpsG-HIS”.
